Data reported in US8338450B2, “Compounds as dipeptidyl peptidase IV (DPP IV) inhibitors” (Lupin Limited, priority 2007, dated 2012).
pIC50: −log10 of the molar value. Counter-ions that a name gives are not always drawn. Like-named read-outs stand apart in the source and are kept apart here.

How the values were obtained:
plasma DPP-IV = target: T1, plasma DPP-IV (Rattus norvegicus, UniProt P14740); test: Measurement of plasma DPP-IV activity in male Wistar rats after single oral dose; type: in vivo; conditions: p.o.; for inhibition at 3 mg/kg / inhibition at 10 mg/kg: rat, po; for Plasma DPP-IV Inhibition (%) 4 h / Plasma DPP-IV Inhibition (%) 6 h / Plasma DPP-IV Inhibition (%) 8 h / inhibition at 10 mg/kg: 10 mg/kg
T1 construct: from tissue; host or cells: EDTA-plasma of male Wistar rats dosed orally
T1 sequence (P14740 37-767 limits assumed): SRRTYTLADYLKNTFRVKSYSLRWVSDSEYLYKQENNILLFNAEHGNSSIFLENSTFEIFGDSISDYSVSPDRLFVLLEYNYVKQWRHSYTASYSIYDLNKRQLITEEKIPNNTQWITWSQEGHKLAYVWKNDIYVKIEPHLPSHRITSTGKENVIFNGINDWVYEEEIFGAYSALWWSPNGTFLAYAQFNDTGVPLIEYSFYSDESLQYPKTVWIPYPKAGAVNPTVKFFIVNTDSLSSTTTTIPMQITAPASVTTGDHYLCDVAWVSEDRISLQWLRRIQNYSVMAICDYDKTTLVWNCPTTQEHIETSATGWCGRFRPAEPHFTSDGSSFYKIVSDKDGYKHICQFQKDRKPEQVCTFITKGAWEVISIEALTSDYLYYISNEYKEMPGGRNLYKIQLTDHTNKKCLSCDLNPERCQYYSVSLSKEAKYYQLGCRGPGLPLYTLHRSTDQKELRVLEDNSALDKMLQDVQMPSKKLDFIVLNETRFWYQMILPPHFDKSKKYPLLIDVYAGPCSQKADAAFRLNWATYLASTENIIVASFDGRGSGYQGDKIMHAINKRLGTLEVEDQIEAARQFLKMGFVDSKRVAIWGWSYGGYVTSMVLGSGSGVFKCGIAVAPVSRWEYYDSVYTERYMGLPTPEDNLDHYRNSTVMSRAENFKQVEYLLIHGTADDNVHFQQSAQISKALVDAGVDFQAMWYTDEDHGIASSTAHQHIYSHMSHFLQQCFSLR
Procedure: Overnight-fasted male animals were administered either vehicle or single oral doses of compounds. Blood samples were withdrawn from retro-bulbar venous plexus under anesthesia at several time points up to 24 h post-dose. EDTA-plasma was separated and DPP-IV activity was measured using a fluorometric assay. Assays were carried out in 96-well flat-bottom black microwell plates. A typical reaction contained 25 μl plasma, 50 μl of 50 μM substrate (Gly-Pro-AMC) and 25 μl assay buffer (25 mM Tris-HCl, pH 7.4, 140 mM NaCl, 10 mM KCl and 1% BSA) in a total reaction volume of 100 μl. Plasma samples were incubated with the substrate for 30 min at 30° C., following which the fluorescence was measured in a microplate fluorescence redaer (POLARstar Galaxy), with excitation and emission wavelengths set at 360 nm and 460 nm, respectively. Percent inhibition in plasma DPP-IV activity due to compounds was calculated by comparing with plasma from vehicle-treated animals.

C57BL/6J mice = test: Oral glucose tolerance test in male C57BL/6J mice; type: in vivo; conditions: 3 mg/kg, p.o., oral glucose load 5 g/kg 1 h after compound, glucose AUC 0-120 min vs vehicle
Procedure: B. Oral Glucose Tolerance Test in Male C57BU6J Mice
Overnight-fasted male […] mice were challenged 1 h, 4 h and 8 h after either vehicle or compound administration with an oral glucose load of 5 g/kg in three different groups of animals. Blood samples for glucose measurement were obtained by tail bleed at predose, before glucose load and at serial time points after the glucose load, to evaluate the efficacy and duration of effect on glucose tolerance test. […] Improvement in glucose tolerance in compound-treated animals was estimated by comparing with vehicle-treated animals.
Table 3 provides data for the antihyperglycemic activity of selected compounds in C57BL/6J mice, as determined by oral glucose tolerance test.

human recombinant DPP-IV = target: T2, human recombinant DPP-IV (Homo sapiens, UniProt P27487); test: Inhibition of human recombinant DPP-IV (Gly-Pro-AMC hydrolysis, fluorometric); type: biochemical; conditions: for pIC50: human recombinant DPP-IV, 50 μM Gly-Pro-AMC, 30 min at 30° C.; for inhibition at 1 µM: compound 1000 nM, relative to vehicle controls, read-out: % inhibition at 1000 nM
T2 construct: purchased R&D Systems, USA (or produced in-house)
T2 sequence (P27487 whole entry): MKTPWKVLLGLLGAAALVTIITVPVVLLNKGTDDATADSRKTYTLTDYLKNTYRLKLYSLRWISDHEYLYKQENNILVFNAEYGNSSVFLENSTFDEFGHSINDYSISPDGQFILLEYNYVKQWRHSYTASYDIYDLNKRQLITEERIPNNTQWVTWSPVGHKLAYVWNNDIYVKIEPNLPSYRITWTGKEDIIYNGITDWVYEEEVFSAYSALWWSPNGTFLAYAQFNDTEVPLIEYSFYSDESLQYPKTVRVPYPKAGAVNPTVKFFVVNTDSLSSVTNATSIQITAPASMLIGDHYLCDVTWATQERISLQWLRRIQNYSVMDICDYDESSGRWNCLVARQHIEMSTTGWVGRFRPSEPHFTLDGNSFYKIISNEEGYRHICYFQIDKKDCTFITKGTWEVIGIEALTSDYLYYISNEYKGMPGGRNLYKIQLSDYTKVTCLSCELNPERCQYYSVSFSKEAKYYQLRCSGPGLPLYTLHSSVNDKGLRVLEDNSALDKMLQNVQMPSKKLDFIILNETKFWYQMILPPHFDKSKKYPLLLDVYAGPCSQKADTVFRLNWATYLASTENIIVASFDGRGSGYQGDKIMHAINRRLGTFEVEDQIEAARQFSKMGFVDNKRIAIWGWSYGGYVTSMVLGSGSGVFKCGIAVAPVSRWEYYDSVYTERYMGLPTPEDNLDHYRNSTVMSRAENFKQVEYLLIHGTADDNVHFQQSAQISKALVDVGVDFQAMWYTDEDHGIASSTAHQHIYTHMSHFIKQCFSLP
Procedure, shortened: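 Enzyme (10 ng) was preincubated 15 min at 30° C. with compound (10 and 100 nM screen; 8 concentrations 0.1-1000 nM) in Tris-HCl pH 7.4, NaCl, KCl, BSA. 50 μM Gly-Pro-AMC was added for 30 min at 30° C. and AMC fluorescence was read (ex 360/em 460 nm). Results are given as % inhibition versus vehicle or as IC50.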

[1] = 4 h post-dose, read-out: Plasma DPP-IV Inhibition (%) 4 h
[2] = 6 h post-dose, read-out: Plasma DPP-IV Inhibition (%) 6 h
[3] = 8 h post-dose, read-out: Plasma DPP-IV Inhibition (%) 8 h

SMILES: C#C[C@H]1CC[C@@H](C#N)N1C(=O)[C@@H](N)C1CC2CCC(C1)N2C(=O)c1ccnc(F)c1 (stereo partly drawn) [Compound 66, (2S,5R)-1-{(2S)-2-Amino-2-[8-(2-fluoropyridin-4-carbonyl)-8-aza-bicyclo[3.2.1]-oct-3-yl]-exo-ethanoyl}-5-ethynyl-pyrrolidin-2-carbonitrile trifluoro acetic acid salt]
- inhibition at 3 mg/kg (plasma DPP-IV; [1]): 56%
- inhibition at 3 mg/kg (plasma DPP-IV; [2]): 38%
- inhibition at 3 mg/kg (plasma DPP-IV; [3]): 38%
- Improvement in Glucose Tolerance (%) 1 h (C57BL/6J mice): 48%
- pIC50 (human recombinant DPP-IV): 8.08

SMILES: N#C[C@@H]1CCCN1C(=O)[C@@H](N)C1CC2CCC(C1)N2 (stereo partly drawn) (as salt: salt) [Compound 8, (2S)-1-{(2S)-2-Amino-2-[8-aza-bicyclo[3.2.1]oct-3-yl]-exo-ethanoyl}-pyrrolidin-2-carbonitrile trifluoro acetic acid salt]
- melting point: 143 to 145 °C

SMILES: Cl.N[C@H](C(=O)N1CCC[C@H]1c1nn[nH]n1)C1CC2CCC(C1)N2C(=O)c1ccc(C(F)(F)F)cc1 (stereo partly drawn) [Compound 13, (2S)-1-{(2S)-2-Amino-2-[8-(4-trifluoromethyl-benzoyl)-8-aza-bicyclo[3.2.1]oct-3-yl]-exo-ethanoyl}-2-(2H-tetrazol-5-yl)pyrrolidine hydrochloride]
- melting point: 244 to 246 °C
- inhibition at 1 µM (human recombinant DPP-IV): 21%

SMILES: N[C@H](C(=O)N1CC(F)C1)C1CC2CCC(C1)N2C(=O)c1ccncc1F (stereo partly drawn) (as salt: trifluoroacetic acid salt) [Compound 62, {(2S)-2-Amino-2-[8-(3-fluoropyridine-4-carbonyl)-8-aza-bicyclo[3.2.1]-oct-3-yl]-exo-ethanoyl}-3-fluoroazetidine trifluoroacetic acid salt]
- melting point: 90 to 93 °C

SMILES: N#C[C@H]1CSCN1C(=O)[C@@H](N)C1CC2CCC(C1)N2C(=O)c1ccc(C(F)(F)F)cc1 (stereo partly drawn) (as salt: salt) [Compound 20, (4S)-3-{(2S)-2-Amino-2-[8-(4-trifluoromethyl-benzoyl)-8-aza-bicyclo[3.2.1]oct-3-yl]-exo-ethanoyl}-thiazolidin-4-carbonitrile trifluoroacetetic acid salt]
- melting point: 159 to 161 °C

SMILES: N#C[C@@H]1C[C@@H]2C[C@@H]2N1C(=O)[C@@H](N)[C@@H]1C[C@H]2CC[C@@H](C1)N2C(=O)c1ccncc1.O=C(O)C(F)(F)F [Compound 25, (1S,3S,5S)-2-{(2S)-2-Amino-2-[8-(pyridine-4-carbonyl)-8-aza-bicyclo[3.2.1]oct-3-yl]-exo-ethanoyl}-2-azabicyclo[3.1.0]hexane-3-carbonitrile trifluoroacetic acid salt]
- Plasma DPP-IV Inhibition (%) 4 h (plasma DPP-IV; 4 h post-dose): 68%
- Plasma DPP-IV Inhibition (%) 6 h (plasma DPP-IV; 6 h post-dose): 49%
- Plasma DPP-IV Inhibition (%) 8 h (plasma DPP-IV; 8 h post-dose): 51%
- pIC50 (human recombinant DPP-IV): 8.44

SMILES: N#C[C@@H]1CCCN1C(=O)[C@@H](N)C1CC2CCC(C1)N2C(=O)c1ccc(C(F)(F)F)cc1.O=C(O)C(F)(F)F (stereo partly drawn) [Compound 2, (2S)-1-{(2S)-2-Amino-2-[8-(4-trifluoromethylbenzoyl)-8-aza-bicyclo[3.2.1]oct-3-yl]-exo-ethanoyl}-pyrrolidin-2-carbonitrile trifluoroacetic acid salt]
- Plasma DPP-IV Inhibition (%) 4 h (plasma DPP-IV; 4 h post-dose): 82%
- Plasma DPP-IV Inhibition (%) 6 h (plasma DPP-IV; 6 h post-dose): 52%
- Plasma DPP-IV Inhibition (%) 8 h (plasma DPP-IV; 8 h post-dose): 45%
- pIC50 (human recombinant DPP-IV): 8.89

SMILES: COC(=O)[C@@H]1CCCN1C(=O)[C@@H](N)C1CC2CCC(C1)N2C(=O)c1ccc(C(F)(F)F)cc1 (stereo partly drawn) [Compound 10, Methyl (2S)-1-{(2S)-2-amino-2-[8-(4-trifluoromethyl-benzoyl)-8-aza-bicyclo[3.2.1]oct-3-yl]-exo-ethanoyl}-pyrrolidin-2-carboxylate trifluoro acetic acid]
- melting point: 173 to 175 °C
- inhibition at 1 µM (human recombinant DPP-IV): 41%

SMILES: N#C[C@@H]1CCCN1C(=O)[C@@H](N)C1CC2CCC(C1)N2C(=O)c1cc(F)c(F)cc1F (stereo partly drawn) [Compound 1, (2S)-1-{(2S)-2-Amino-2-[8-(2,4,5-trifluorobenzoyl)-8-aza-bicyclo[3.2.1]oct-3-yl]-exo-ethanoyl}-pyrrolidin-2-carbonitrile trifluoroacetic acid salt]
- inhibition at 10 mg/kg (plasma DPP-IV; [1]): 85%
- inhibition at 10 mg/kg (plasma DPP-IV; [2]): 56%
- inhibition at 10 mg/kg (plasma DPP-IV; [3]): 44%
- pIC50 (human recombinant DPP-IV): 8.66

SMILES: N[C@H](C(=O)N1CCC[C@H]1C(=O)O)C1CC2CCC(C1)N2C(=O)c1ccc(C(F)(F)F)cc1 (stereo partly drawn) (as salt: trifluoroacetic acid salt) [Compound 11, (2S)-1-{(2S)-2-amino-2-[8-(4-trifluoromethyl-benzoyl)-8-aza-bicyclo[3.2.1]-oct-3-yl]-exo-ethanoyl}-pyrrolidin-2-carboxylic acid trifluoroacetic acid salt]
- melting point: 161 to 163 °C

SMILES: Cl.N#C[C@@H]1C[C@H](F)CN1C(=O)[C@@H](N)C1CC2CCC(C1)N2C(=O)c1ccc(C(F)(F)F)cc1 (stereo partly drawn) [Compound 15, (2S,4S)-1-{(2S)-2-Amino-2-[8-(4-trifluoromethyl-benzoyl)-8-aza-bicyclo[3.2.1]oct-3-yl]-exo-ethanoyl}-4-fluoro-pyrrolidine-2-carbonitrile hydrochloride salt]
- melting point: 168 to 170 °C
- pIC50 (human recombinant DPP-IV): 8.76

SMILES: NC(=O)[C@@H]1C[C@@H]2C[C@@H]2N1C(=O)[C@@H](N)C1CC2CCC(C1)N2C(=O)c1ccc2c(c1)OCO2 (stereo partly drawn) (as salt: salt) [Compound 45, (1S,3S,5S)-2-{(2S)-2-Amino-2-[8-(benzo-[1,3]dioxole-5-carbonyl)-8-aza-bicyclo[3.2.1]oct-3-yl]-exo-ethanoyl}-2-azabicyclo[3.1.0]-hexane-3-carboxamide trifluoro acetic acid salt]
- melting point: 154 to 156 °C

SMILES: N#C[C@@H]1C[C@@H]2C[C@@H]2N1C(=O)[C@@H](N)C1CC2CCC(C1)N2C(=O)c1ccnc(F)c1 (stereo partly drawn) (as salt: salt) [Compound 28, (1S,3S,5S)-2-{(2S)-2-amino-2-[8-(2-fluoropyridine-4-carbonyl)-8-aza-bicyclo[3.2.1]-oct-3-yl]-exo-ethanoyl}-2-azabicyclo[3.1.0]-hexane-3-carbonitrile trifluoro acetic acid salt]
- melting point: 112 to 115 °C

SMILES: C#C[C@H]1CC[C@@H](C#N)N1C(=O)[C@@H](N)C1CC2CCC(C1)N2C(=O)c1ccc(C(F)(F)F)cc1 (stereo partly drawn) (as salt: salt) [Compound 63, (2S,5R)-1-{(2S)-2-Amino-2-[8-(4-trifluoromethyl-benzoyl)-8-aza-bicyclo[3.2.1]oct-3-yl]-exo-ethanoyl}-5-ethynyl-pyrrolidin-2-carbonitrile trifluoro acetic acid salt]
- melting point: 160 to 163 °C

SMILES: N[C@H](C(=O)N1[C@H](C(=O)O)C[C@@H]2C[C@@H]21)C1CC2CCC(C1)N2C(=O)c1ccc2c(c1)OCO2 (stereo partly drawn) (as salt: hydrochloride) [Compound 46, (1S,3S,5S)-2-{(2S)-2-Amino-2-[8-(benzo[1,3]-dioxole-5-carbonyl)-8-aza-bicyclo[3.2.1]-oct-3-yl]-exo-ethanoyl}-2-azabicyclo[3.1.0]hexane-3-carboxylic acid hydrochloride]
- melting point: 280 °C (dec.)

SMILES: C#C[C@H]1CC[C@@H](C#N)N1C(=O)[C@@H](N)C1CC2CCC(C1)N2C(=O)c1ccnc(F)c1 (stereo partly drawn) (as salt: salt) [Compound 66, (2S,5R)-1-{(2S)-2-Amino-2-[8-(2-fluoropyridin-4-carbonyl)-8-aza-bicyclo[3.2.1]-oct-3-yl]-exo-ethanoyl}-5-ethynyl-pyrrolidin-2-carbonitrile trifluoro acetic acid salt]
- melting point: 199 to 200 °C

SMILES: N[C@H](C(=O)N1CCSC1)C1CC2CCC(C1)N2C(=O)c1ccc(C(F)(F)F)cc1 (stereo partly drawn) (as salt: trifluoroacetic acid salt) [Compound 21, 3-{(2S)-2-Amino-2-[8-(4-trifluoromethyl-benzoyl)-8-aza-bicyclo[3.2.1]-oct-3-yl]-exo-ethanoyl}-1,3-thiazolidin trifluoroacetic acid salt]
- melting point: 123 to 125 °C
